Data reported in patent US6331570A, “Active enantiomer of RARγ-specific agonist” (Bristol-Myers Squibb Company, priority 1999, dated 2001).

What was measured:
[1] = prior art / general statement; cited from earlier work
papillomas = assay: two-stage system of mouse skin carcinogenesis (DMBA initiator, TPA promoter); format: in vivo; conditions: i.p.
[2] = 13-cis-retinoic acid 50 mg/kg (dose from text), 10 weeks monitoring

SMILES: CC1=C(/C=C/C(C)=C/C=C/C(C)=C\C(=O)O)C(C)(C)CCC1 [13-cis-retinoic acid]
- liver toxicity [1]: adverse side-effects on long-term use such as liver toxicity
- number and size of papillomas (papillomas; 50 mg/kg, 10 weeks): inactive
- Tumor Burden (mean tumor size per mouse) (papillomas; [2]): 6.8 mm^3
- Tumor Incidence (% of mice with tumors) (papillomas; [2]): 80%
